Measured values as given in patent US20070264319A1, “Transdermal Antiemesis Delivery System, Method and Composition Therefor” (priority 2004, published 2007).
Structures can show the parent of a compound that is named as a salt.

Experiments:
[1] = water and normal saline at 20° C.; cited from earlier work
[2] = Solubility of granisetron base in penetration enhancers; format: physicochemical; settings: thermodynamic from solid
Description: The incorporation of granisetron base in various penetration enhancers and solvents was determined by incrementally adding small amounts of the drug to about 100 ml of liquid penetration enhancer, and agitating the liquid mixture until the drug was no longer incorporated (i.e., saturation) to provide an apparently saturated liquid mixture at an ambient room temperature in the range of about 20 to about 25° C. Each of the saturated liquid mixtures was agitated by inverting for about 24 hours at ambient room temperature, the solution was centrifuged and its supernatant was diluted in HPLC mobile phase and assayed by the HPLC method as described in Example 2.

[3] = typical oral dose of about 1 to about 2 mg twice daily; cited from earlier work

SMILES | solubility [1] | solubility at 24 h ([2]; oil or lipid, in Isopropyl myristate, about 20 to about 25° C.) [µg/mL] | solubility at 24 h ([2]; organic solvent or mixture, in BRIJ ® 30, about 20 to about 25° C.) [µg/mL] | solubility at 24 h ([2]; organic solvent or mixture, in DDAIP (free base), about 20 to about 25° C.) [µg/mL] | solubility at 24 h ([2]; organic solvent or mixture, in DGME (transcutol), about 20 to about 25° C.) [µg/mL] | solubility at 24 h ([2]; organic solvent or mixture, in Limonene, about 20 to about 25° C.) [µg/mL] | solubility at 24 h ([2]; organic solvent or mixture, in NMP, about 20 to about 25° C.) [µg/mL] | solubility at 24 h ([2]; organic solvent or mixture, in PEG-400, ambient room temperature about 20 to about 25° C.) [µg/mL] | solubility at 24 h ([2]; organic solvent or mixture, in Propylene glycol, about 20 to about 25° C.) [µg/mL] | solubility at 24 h ([2]; organic solvent or mixture, in SPAN ® 20, about 20 to about 25° C.) [µg/mL] | elimination half-life [3]
CN1C2CCCC1CC(NC(=O)c1nn(C)c3ccccc13)C2 (centres unmarked) [Granisetron hydrochloride] | soluble in water and normal saline | – | – | – | – | – | – | – | – | – | –
CN1C2CCCC1CC(NC(=O)c1nn(C)c3ccccc13)C2 (centres unmarked) [Granisetron] | – | 5.46 | 41.2 | 7.17 | 86.6 | 8.59 | 196 | 45.7 | 31.7 | 32.9 | about 7 hours
